US12503473B2, “Triazolopyrimidine compounds and their use in treating cancer” (Dizal (Jiangsu) Pharmaceutical Co., Ltd., priority 2018, dated 2025)

Key:
[1] = test system: MC38 MCT1 KO murine colorectal cell line; assay: Mouse syngeneic model, αCTLA4 antibody combination (first study, FIG. 4); format: in vivo, female C57·B16 mice; conditions: Day 15
Excerpt: The in vivo efficacy of MCT4 inhibitors has been tested in murine syngeneic models. To test the selective impact of MCT4 inhibitors of Formula (I), MCT1 was knocked-out (KO) of the MC38 syngeneic cell line model using CRISPR precise genome editing. The MC38 MCT1 KO murine colorectal cell line can be grown sub-cutaneously in female C57·B16 mice and tumour volume calculated from bilateral caliper measurements. For efficacy studies, ten million cells were inoculated subcutaneously onto the left flank of the animal in a volume of 0.1 ml serum free DMEM media. Animals were randomised by bodyweight at the time of cell implantation and treatment started the following day. In the first of these studies shown in FIG. 4, monotherapy treatment arms received either a compound of Formula (I) (100 mg/kg BID) by oral gavage or αCTLA4 antibody (anti-CTLA-4 9D9 mlgG1 antibody, described in WO200712373) (10 mg/kg twice weekly) intraperitoneally. Combination groups consisted of a compound of Formula (I) (100 or 10 mg/kg PO BID) with αCTLA4 antibody (10 mg/kg IP twice weekly). In the second of these studies shown in FIG. 5, monotherapy treatment arms received either a compound of Formula (I) (30 mg/kg PO BID) with αPD-1 antibody (from Bio X Cell, Catalogue #BE0146, Lot 665417s1, 6.78 mg/mL) (10 mg/kg IP twice weekly). In both studies dosing was continued for up to 6 weeks and tumour volume, body weight and tumour condition were recorded three times weekly. Vehicle was 0.5% hydroxy propyl methyl cellulose/0.1% Tween 80 given twice daily by oral gavage with PBS/a given twice weekly intraperitoneally in both studies.
Individual tumour growth profiles are shown with animals taken off study using time to event criteria based on a maximum tumour volume of 1.5 cm^3, tumour condition or animal welfare limits. Due to animals coming off study during the later stages of the experiment, GeoMean percentage inhibition values were calculated on Day 15. […] Monotherapy αCTLA4 (10 mg/kg) was ineffective with 6.1%^NS.

[2] = test system: NCI H358 subcutaneous xenograft; assay: Human lung cancer xenograft model, VEGFR TKI combination; format: in vivo, female nude mice; conditions: combination of AZD2171 (3 mg/kg QD) with Example 62 (100 mg/kg BID), oral, 17 days; p<0.001 vs control, p=0.013 vs AZD2171 alone
Procedure: The in vivo efficacy of MCT4 inhibitors has been tested in human xenograft models. The NSCLC cell line NCI H358 can be grown as a subcutaneous xenograft in female nude mice and tumour volume calculated from bilateral caliper measurements. For efficacy studies three million NCI H358 cells were inoculated sub-cutaneously onto the left flank of the animal in a volume of 0.1 ml serum free media (RPMI) and matrigel. Animals were assigned into treatment groups 14 days after cell implantation and received either AZD2171 (3 mg/kg QD) (Wedge et al., (2005) Cancer Res. 65:4389-4400), a compound of Formula (I) (100 mg/kg BID) or the combination of both by oral gavage. A vehicle control of 0.5% hydroxy propyl methyl cellulose/0.1% Tween 80 was dosed twice daily given orally. Dosing was continued for 17 days and tumour volume, body weight and tumour condition were recorded twice weekly for the duration of the study.

[3] = test system: MC38 MCT1 KO murine colorectal cell line; assay: Mouse syngeneic model, αPD-1 antibody combination (second study, FIG. 5); format: in vivo, female C57·B16 mice; conditions: Day 13
Excerpt: The in vivo efficacy of MCT4 inhibitors has been tested in murine syngeneic models. To test the selective impact of MCT4 inhibitors of Formula (I), MCT1 was knocked-out (KO) of the MC38 syngeneic cell line model using CRISPR precise genome editing. The MC38 MCT1 KO murine colorectal cell line can be grown sub-cutaneously in female C57·B16 mice and tumour volume calculated from bilateral caliper measurements. For efficacy studies, ten million cells were inoculated subcutaneously onto the left flank of the animal in a volume of 0.1 ml serum free DMEM media. Animals were randomised by bodyweight at the time of cell implantation and treatment started the following day. […] In both studies dosing was continued for up to 6 weeks and tumour volume, body weight and tumour condition were recorded three times weekly. […]
Again, individual tumour growth profiles are shown with animals taken off study using time to event criteria based on a maximum tumour volume of 1.5 cm^3, tumour condition or animal welfare limits. Due to animals reaching the time to event endpoint at different times during the later stages of the experiment GeoMean percentage inhibition values were calculated on Day 13.

MCT1 = molecular target: T1, MCT1 (Homo sapiens, UniProt P53985); assay: Assay (c): FLIPR BCECF lactate influx in K562 cells; format: cell-based; conditions: mean of at least three repeats, read-out: MCT1 FLIPR pIC50 (K562) (converted)
T1 construct: a human erythroleukemia line predominantly expressing MCT1, a small amount of MCT2 and no MCT4; host or cells: K562
T1 sequence (P53985 1-500): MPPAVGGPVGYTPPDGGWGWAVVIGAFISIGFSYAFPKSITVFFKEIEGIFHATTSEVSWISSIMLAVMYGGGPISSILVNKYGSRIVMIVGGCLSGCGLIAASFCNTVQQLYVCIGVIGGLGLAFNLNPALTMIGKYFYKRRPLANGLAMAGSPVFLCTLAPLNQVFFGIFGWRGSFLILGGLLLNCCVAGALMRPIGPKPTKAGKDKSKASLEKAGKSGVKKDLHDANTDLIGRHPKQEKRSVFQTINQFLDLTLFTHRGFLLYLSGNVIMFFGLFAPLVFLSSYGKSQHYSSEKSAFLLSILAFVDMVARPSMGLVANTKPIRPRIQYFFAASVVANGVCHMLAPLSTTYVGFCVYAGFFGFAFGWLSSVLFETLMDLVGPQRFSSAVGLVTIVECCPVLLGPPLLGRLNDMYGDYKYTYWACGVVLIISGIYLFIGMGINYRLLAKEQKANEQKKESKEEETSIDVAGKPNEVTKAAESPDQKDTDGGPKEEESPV
Procedure: Cells were loaded with the pH sensitive dye BCECFAM(Invitrogen #B11150) before being washed to remove excess dye and seeded into the assay plates—directly onto the test compound—at a density of 15,000 cells/well (NCI—H358) or 30,000 cells/well (K562), in 30 μl HBSS with 1 mM [final] […] Assay plates were lidded and spun in a plate centrifuge at 170 g for 1 minute. Plates were then wrapped in foil and incubated in the dark for 1 hour at room temperature.
Following incubation with test compound, 10 μl of 25 mM Sodium-L-Lactate (Sigma #L7022) made up in HBSS with 1 mM [final] […] This addition was performed directly on the FLIPR Tetra platform (Molecular Devices) as part of a real-time kinetic read protocol. […] A percentage change from base-line was calculated for each test well and values normalised to control wells—treated with either DMSO (maximum assay signal) or chemistry related to that described in this patent (minimum assay signal)—before fitting concentration response curves to determine an IC50 value.

IC50 (MCT1): > 25.1 µM
SMILES: Cc1nc2nc(C)c(O[C@@H]3CCN(c4ccc(-c5ccc(CN6CCOCC6)nn5)cc4)C3)c(C)n2n1 [Example 62, (R)-4-((6-(4-(3-((2,5,7-trimethyl-[1,2,4]triazolo[1,5-a]pyrimidin-6-yl)oxy)pyrrolidin-1-yl)phenyl)pyridazin-3-yl)methyl)morpholine]
GeoMean percentage growth inhibition vs vehicle control ([1]; Example 62 10 mg/kg PO BID with αCTLA4 antibody 10 mg/kg IP twice weekly, p≤0.01): 67.4% | GeoMean percentage growth inhibition vs vehicle control ([1]; Example 62 100 mg/kg PO BID with αCTLA4 antibody 10 mg/kg IP twice weekly, p≤0.001, p=0.0311 vs Example 62 alone): 82.2% | GeoMean percentage growth inhibition vs vehicle control ([1]; Example 62 monotherapy 100 mg/kg BID PO, p≤0.05): 60.0% | tumour regression [2]: 72% | GeoMean percentage growth inhibition vs vehicle control ([3]; Example 62 30 mg/kg PO BID with αPD-1 antibody 10 mg/kg IP twice weekly, p≤0.001): 82.3% | GeoMean percentage growth inhibition vs vehicle control ([3]; Example 62 monotherapy 30 mg/kg PO BID, NS): 30.1%
